Data: ChEMBL document CHEMBL2074480, “Characterization of tetrandrine, a potent inhibitor of P-glycoprotein-mediated multidrug resistance” (Cancer Chemother Pharmacol, 2004)

Target: ATP-dependent translocase ABCB1 (Homo sapiens, UniProt P08183)
Test: TP_TRANSPORTER: drug resistance (vincristine) in KBV200 cells
Assay type: functional, cell-based

ATP-dependent translocase ABCB1, sequence (P08183 whole entry): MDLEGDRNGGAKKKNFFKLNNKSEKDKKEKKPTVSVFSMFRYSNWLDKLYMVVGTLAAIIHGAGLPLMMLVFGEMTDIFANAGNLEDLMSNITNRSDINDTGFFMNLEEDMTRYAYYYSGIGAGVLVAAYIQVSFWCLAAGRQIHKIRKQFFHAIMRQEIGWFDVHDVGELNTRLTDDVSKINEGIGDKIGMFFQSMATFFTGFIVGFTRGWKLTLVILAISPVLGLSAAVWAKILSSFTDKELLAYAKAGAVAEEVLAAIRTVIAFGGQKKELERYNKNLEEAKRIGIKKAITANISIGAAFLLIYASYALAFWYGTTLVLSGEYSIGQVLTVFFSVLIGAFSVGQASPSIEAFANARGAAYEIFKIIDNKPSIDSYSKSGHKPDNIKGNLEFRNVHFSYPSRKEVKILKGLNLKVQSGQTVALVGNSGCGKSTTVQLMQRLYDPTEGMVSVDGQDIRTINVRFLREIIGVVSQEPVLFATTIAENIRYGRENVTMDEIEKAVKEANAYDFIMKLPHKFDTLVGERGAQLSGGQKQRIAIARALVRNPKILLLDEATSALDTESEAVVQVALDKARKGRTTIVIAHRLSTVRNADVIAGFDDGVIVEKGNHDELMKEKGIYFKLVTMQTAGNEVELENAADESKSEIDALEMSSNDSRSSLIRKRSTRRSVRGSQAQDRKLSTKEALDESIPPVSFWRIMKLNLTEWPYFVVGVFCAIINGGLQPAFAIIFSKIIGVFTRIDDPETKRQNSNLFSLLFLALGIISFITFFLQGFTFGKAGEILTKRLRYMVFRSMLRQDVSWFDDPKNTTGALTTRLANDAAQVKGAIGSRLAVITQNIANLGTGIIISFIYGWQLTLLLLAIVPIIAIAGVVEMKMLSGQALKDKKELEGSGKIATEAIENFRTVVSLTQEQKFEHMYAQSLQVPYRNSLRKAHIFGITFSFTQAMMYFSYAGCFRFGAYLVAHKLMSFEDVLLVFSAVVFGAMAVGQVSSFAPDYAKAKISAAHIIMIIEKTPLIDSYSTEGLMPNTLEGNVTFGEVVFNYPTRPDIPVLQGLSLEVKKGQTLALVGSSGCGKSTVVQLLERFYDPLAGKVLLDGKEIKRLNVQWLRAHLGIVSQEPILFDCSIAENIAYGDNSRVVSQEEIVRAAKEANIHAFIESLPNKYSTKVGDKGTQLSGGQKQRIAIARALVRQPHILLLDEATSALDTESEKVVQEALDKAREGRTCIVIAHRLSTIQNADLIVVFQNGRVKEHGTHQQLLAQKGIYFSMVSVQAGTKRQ

## COc1ccc2cc1Oc1ccc(cc1)C[C@H]1c3cc(c(OC)cc3CCN1C)Oc1c(OC)c(OC)cc3c1[C@H](C2)N(C)CC3 [FANCHININ]
  Activity: inhibitor [+]
